This note sets out measurements from the NIST ThermoML archive (doi:10.1021/acs.jced.7b00191).

± gives the expanded uncertainty stated by the source.

For this series the following is noted: Liquid; Visual observation in an unstirred cell.
In the case of `Clc1ccccc1Cl` [1,2-dichlorobenzene], the Critical temperature is given as 698.8 ± 2.8 K.

Consider `CC(C)CC(C)(C)C` [2,2,4-trimethylpentane], for which the Critical temperature is given as 544 ± 2.8 K.

In the case of `CCC(C)(C)C` [2,2-dimethylbutane], the Critical temperature was found to be 489.4 ± 2.8 K.

As to `c1ccccc1` [benzene], the Critical temperature is given as 562.2 ± 2.8 K.

Regarding `Fc1ccccc1` [fluorobenzene], the Critical temperature came to 557.3 ± 2.8 K.

On to `CCCCCCC` [heptane], for which the Critical temperature is 540.6 ± 2.8 K.

As for `CCCCCC` [hexane], the Critical temperature worked out at 507.4 ± 2.8 K.

With `CCCCCCCC` [octane], the Critical temperature came out at 568.8 ± 2.8 K.
